“And” between values parts separate entries of the source, which are not always exact repeats. Identical values can stand only once. Inconclusive results and toxic doses are left out. Cut-off read from the data, not from the text of the source: active = T/C of 150% or more; inactive = T/C below 125%.
Test system: L1210 leukemia ip in BDF1 mice, survival T/C
Experiment: NCI In Vivo Anticancer Drug Screen. Data for tumor model L1210 Leukemia (intraperitoneal) in B6D2F1 (BDF1) mice
Details: endpoint: mean survival time, higher = longer survival
Summary of the method: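 Transplantable tumor model; survival measured in treated vs vehicle control mice. Value = treated/control.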

[1] = dose: 100.0 mg/kg/injection, schedule: Q01DX001 (ip), vehicle: saline
[2] = dose: 100.0 mg/kg/injection, schedule: Q01DX009 (ip), vehicle: Klucel (hydroxypropylcellulose) (HPC)
[3] = dose: 200.0 mg/kg/injection, schedule: Q01DX009 (ip), vehicle: Klucel (hydroxypropylcellulose) (HPC)
[4] = dose: 400.0 mg/kg/injection, schedule: Q01DX009 (ip), vehicle: Klucel (hydroxypropylcellulose) (HPC)
[5] = dose: 100.0 mg/kg/injection, schedule: Q01DX001 (ip), vehicle: carboxymethylcellulose (CMC)
[6] = dose: 200.0 mg/kg/injection, schedule: Q01DX001 (ip), vehicle: carboxymethylcellulose (CMC)

Measured: T/C

CC(Cc1ccc2c(c1)OCO2)[N+](=O)[O-] (stereo not given)
inactive: dose: 150.0 mg/kg/injection, schedule: Q04DX003 (ip), vehicle: saline with Tween-80 102 % of control | dose: 300.0 mg/kg/injection, schedule: Q04DX003 (ip), vehicle: saline with Tween-80 100 % of control

O=C(Nc1ccccc1)OCC(F)(F)F
inactive: dose: 100.0 mg/kg/injection, schedule: Q04DX002 (ip), vehicle: gum acacia 105 % of control | dose: 200.0 mg/kg/injection, schedule: Q04DX002 (ip), vehicle: gum acacia 108 % of control | dose: 400.0 mg/kg/injection, schedule: Q04DX002 (ip), vehicle: gum acacia 101 % of control

CCCCCCCCCCCCCCCCOc1ccc(C)cc1
inactive: dose: 100.0 mg/kg/injection, schedule: Q04DX003 (ip), vehicle: saline with Tween-80 100 % of control | dose: 200.0 mg/kg/injection, schedule: Q04DX003 (ip), vehicle: saline with Tween-80 103 % of control | dose: 400.0 mg/kg/injection, schedule: Q04DX003 (ip), vehicle: saline with Tween-80 97 % of control

Cc1ccc(S(=O)(=O)N/N=C2/C(=O)C3CCC2C3)cc1 (stereo not given)
inactive: dose: 50.0 mg/kg/injection, schedule: Q01DX001 (ip), vehicle: saline with Tween-80 92 % of control | dose: 100.0 mg/kg/injection, schedule: Q01DX001 (ip), vehicle: saline with Tween-80 92 % of control | dose: 200.0 mg/kg/injection, schedule: Q01DX001 (ip), vehicle: saline with Tween-80 87 % of control

COc1ccc2cc(C)ncc2c1
inactive: [1] 96 % of control | dose: 200.0 mg/kg/injection, schedule: Q01DX001 (ip), vehicle: saline 91 % of control | dose: 400.0 mg/kg/injection, schedule: Q01DX001 (ip), vehicle: saline 91 % of control

CC(C)(Br)CNC(=O)c1cccc([N+](=O)[O-])c1
inactive: dose: 75.0 mg/kg/injection, schedule: Q01DX009 (ip), vehicle: Klucel (hydroxypropylcellulose) (HPC) 103 % of control | dose: 75.0 mg/kg/injection, schedule: Q04DX003 (ip), vehicle: Klucel (hydroxypropylcellulose) (HPC) 95 % of control | dose: 150.0 mg/kg/injection, schedule: Q01DX009 (ip), vehicle: Klucel (hydroxypropylcellulose) (HPC) 101 % of control | dose: 150.0 mg/kg/injection, schedule: Q04DX003 (ip), vehicle: Klucel (hydroxypropylcellulose) (HPC) 97 % of control | dose: 300.0 mg/kg/injection, schedule: Q01DX009 (ip), vehicle: Klucel (hydroxypropylcellulose) (HPC) 86 % of control | dose: 300.0 mg/kg/injection, schedule: Q04DX003 (ip), vehicle: Klucel (hydroxypropylcellulose) (HPC) 92 % of control

Cc1cc2c(cc1C)/C(=N/O)CCC2
inactive: [2] 100 % of control | [3] 101 % of control | [4] 101 % of control

Cc1ccc(S(=O)(=O)O/C=C2\CCOC2=O)cc1
inactive: dose: 100.0 mg/kg/injection, schedule: Q04DX002 (ip), vehicle: Klucel (hydroxypropylcellulose) (HPC) 105 % of control | dose: 200.0 mg/kg/injection, schedule: Q04DX002 (ip), vehicle: Klucel (hydroxypropylcellulose) (HPC) 112 % of control

CC(NC(=O)NCCCl)c1ccsc1 (stereo not given)
inactive: dose: 2.5 mg/kg/injection, schedule: Q01DX009 (ip), vehicle: Klucel (hydroxypropylcellulose) (HPC) 111 % of control | dose: 5.0 mg/kg/injection, schedule: Q01DX009 (ip), vehicle: Klucel (hydroxypropylcellulose) (HPC) 98 % of control | dose: 10.0 mg/kg/injection, schedule: Q01DX009 (ip), vehicle: Klucel (hydroxypropylcellulose) (HPC) 94 % of control and 92 % of control

O=S(=O)(O)c1cc(Cl)cc(Cl)c1O
inactive: dose: 100.0 mg/kg/injection, schedule: Q01DX009 (ip), vehicle: saline 96 % of control | dose: 100.0 mg/kg/injection, schedule: Q04DX003 (ip), vehicle: saline 113 % of control | dose: 200.0 mg/kg/injection, schedule: Q01DX009 (ip), vehicle: saline 100 % of control | dose: 200.0 mg/kg/injection, schedule: Q04DX003 (ip), vehicle: saline 105 % of control | dose: 400.0 mg/kg/injection, schedule: Q01DX009 (ip), vehicle: saline 105 % of control | dose: 400.0 mg/kg/injection, schedule: Q04DX003 (ip), vehicle: saline 107 % of control

CCC1(Cc2ccsc2)C(=O)NC(=O)NC1=O
inactive: [5] 103 % of control | [6] 94 % of control | dose: 400.0 mg/kg/injection, schedule: Q01DX001 (ip), vehicle: carboxymethylcellulose (CMC) 100 % of control

COc1ccc(OC)c(NC(=S)Nc2ccccc2)c1
inactive: [2] 98 % of control | [3] 97 % of control | [4] 92 % of control

CCOc1ccn(C)c(=O)n1
inactive: dose: 50.0 mg/kg/injection, schedule: Q01DX001 (ip), vehicle: saline 90 % of control | [1] 95 % of control

Oc1ccc(Cl)c2cccnc12
inactive: dose: 4.0 mg/kg/injection, schedule: Q01DX015 (ip), vehicle: carboxymethylcellulose (CMC) 103 % of control | dose: 8.0 mg/kg/injection, schedule: Q01DX015 (ip), vehicle: carboxymethylcellulose (CMC) 106 % of control | dose: 16.0 mg/kg/injection, schedule: Q01DX015 (ip), vehicle: carboxymethylcellulose (CMC) 103 % of control | dose: 32.0 mg/kg/injection, schedule: Q01DX015 (ip), vehicle: carboxymethylcellulose (CMC) 95 % of control | dose: 64.0 mg/kg/injection, schedule: Q01DX015 (ip), vehicle: carboxymethylcellulose (CMC) 102 % of control | [5] 90 % of control | dose: 128.0 mg/kg/injection, schedule: Q01DX015 (ip), vehicle: carboxymethylcellulose (CMC) 100 % of control | [6] 103 % of control

NNC(=O)c1ccc(Cl)cc1Cl
inactive: dose: 6.25 mg/kg/injection, schedule: Q04DX003 (ip), vehicle: saline sonified 97 % of control | dose: 12.5 mg/kg/injection, schedule: Q01DX009 (ip), vehicle: Klucel (hydroxypropylcellulose) (HPC) 96 % of control | dose: 12.5 mg/kg/injection, schedule: Q04DX003 (ip), vehicle: saline sonified 101 % of control | dose: 25.0 mg/kg/injection, schedule: Q01DX009 (ip), vehicle: Klucel (hydroxypropylcellulose) (HPC) 106 % of control | dose: 25.0 mg/kg/injection, schedule: Q04DX003 (ip), vehicle: saline sonified 95 % of control

CCOC(=O)C(CCSC)(CCN(C)Cc1ccccc1)C(=O)OCC
inactive: dose: 5.0 mg/kg/injection, schedule: Q01DX001 (ip), vehicle: saline 102 % of control | dose: 10.0 mg/kg/injection, schedule: Q01DX001 (ip), vehicle: saline 96 % of control | dose: 20.0 mg/kg/injection, schedule: Q01DX001 (ip), vehicle: saline 96 % of control | dose: 40.0 mg/kg/injection, schedule: Q01DX001 (ip), vehicle: saline 94 % of control | dose: 80.0 mg/kg/injection, schedule: Q01DX001 (ip), vehicle: saline 94 % of control | [1] 100 % of control

CCCCCCC(=O)/C=C/c1ccc(N(C)C)cc1
inactive: dose: 100.0 mg/kg/injection, schedule: Q01DX001 (sc), vehicle: steriod suspending solution 97 % of control | dose: 100.0 mg/kg/injection, schedule: Q04DX003 (sc), vehicle: steriod suspending solution 105 % of control | dose: 200.0 mg/kg/injection, schedule: Q01DX001 (sc), vehicle: steriod suspending solution 105 % of control | dose: 200.0 mg/kg/injection, schedule: Q04DX003 (sc), vehicle: steriod suspending solution 103 % of control | dose: 400.0 mg/kg/injection, schedule: Q01DX001 (sc), vehicle: steriod suspending solution 97 % of control | dose: 400.0 mg/kg/injection, schedule: Q04DX003 (sc), vehicle: steriod suspending solution 102 % of control

COC(=O)C(CSc1ccccc1)NC(=O)c1ccccc1 (stereo not given)
inactive: dose: 100.0 mg/kg/injection, schedule: Q04DX003 (ip), vehicle: Klucel (hydroxypropylcellulose) (HPC) 101 % of control | dose: 200.0 mg/kg/injection, schedule: Q04DX003 (ip), vehicle: Klucel (hydroxypropylcellulose) (HPC) 114 % of control | dose: 400.0 mg/kg/injection, schedule: Q04DX003 (ip), vehicle: Klucel (hydroxypropylcellulose) (HPC) 96 % of control

— PubChem BioAssay AID248 (DTP/NCI, 2004)
